Structures are written as SMILES.

The target of the first assay is T1, Syk (Homo sapiens, UniProt P43405).
T1 construct: purchased Carna Biosciences
Put plainly: Syk HTRF assay. To be noted: IC50 activity level, read-out: Activity Level. In kind it is biochemical. Here is the method:
Test compounds were prepared at a concentration of 1.5 mM in DMSO followed by 3-fold dilutions in Greiner […] polypropylene plates. A 1:4 dilution of compounds by 8 μL/well transfer from the polypropylene plates to 24 μL/well Assay Buffer in Costar 3710 384 well black plates was then performed. Kinases (13 μL/well) or Assay Buffer only (background controls; 50 mM HEPES pH 7.6, 1 mM DTT, 10 mM MgCl2, 0.01% Triton X100, 0.01% BSA and 0.1 mM EDTA) were added to Costar 3710 384-well black plates for the HTRF assays (Carna Biosciences) and compound was added from the 1:4 dilution plate. Syk start mix (87.5 μM ATP, 80 nM Substrate Peptide (American Peptide Company 332722) was added and the mixture was incubated at room temperature for 1 hour. Syk Stop Solution (120 mM EDTA in dilution buffer) was then added to the Syk HTRF assay plate and incubated at room temperature on a shaker for 2 minutes. Syk Antibody Mix (4.86 μg/mL DyLight 647 Streptavidin (Pierce 21824); 1 μg/mL Lance Eu-Anti-Phosphotyrosine (PerkinElmer AD0069)) was added to the Syk HTRF assay plate and the mixture was further incubated at room temperature for >4 h. Time resolved fluorescence was read in assay plates on a PerkinElmer EnVision. HTRF assays were performed using 320 nm excitation, 60 μs delay, 665 nm and 615 nm emission. Data was expressed by division of 665 nm by 615 nm emissions.
Consider `Fc1ccc(Nc2nc3cccc(NC4CCCNC4)n3n2)cc1` (stereo in doubt) [Example 462, (R)-N^2-(4-fluorophenyl)-N^5-(piperidin-3-yl)-[1,2,4]triazolo[1,5-a]pyridin-2,5-diamine], for which the IC50 lay within 1000 to 10000 nM.
For `Cn1ncc2ccc(Nc3nc4cccc(NC5CCCNC5)n4n3)cc21` (stereo in doubt) [Example 463, (R)-N^2-(1-methyl-1H-indazol-6-yl)-N^5-(piperidin-3-yl)-[1,2,4]triazolo[1,5-a]pyridin-2,5-diamine], the IC50 fell in the range of 500 to 1000 nM.
In the case of `c1cc(NC2CCCNC2)n2nc(Nc3ccc4cn[nH]c4c3)nc2c1` (stereo in doubt) [Example 464, (S)-N^2-(1H-indazol-6-yl)-N^5-(piperidin-3-yl)-[1,2,4]triazolo[1,5-a]pyridine-2,5-diamine], the IC50 lay in the range of 0.005 to 250 nM.
As to `OC1CCC(Nc2cccc3nc(Nc4ccccc4)nn23)CC1` (stereo in doubt) [Example 470, trans-4-(2-(phenylamino)-[1,2,4]triazolo[1,5-a]pyridin-5-ylamino)cyclohexanol], the IC50 fell in the range of 1000 to 10000 nM.
`NC(=O)c1ccc(Nc2nc3cccc(NC4CCCNC4)n3n2)cc1` (stereo in doubt) [Example 476, (R)-4-(5-(piperidin-3-ylamino)-[1,2,4]triazolo[1,5-a]pyridin-2-ylamino)benzamide]: the IC50 was in the range of 1000 to 10000 nM.
Turning to `CC(CO)Cc1cccc2nc(Nc3ccccc3)nn12` (stereo in doubt) [Example 480, (S)-2-methyl-3-(2-(phenylamino)-[1,2,4]triazolo[1,5-a]pyridin-5-yl)propan-1-ol], the IC50 lay within 250 to 500 nM.
`NC(=O)c1ccc(Nc2nc3cccc(NC4CCC(N)CC4)n3n2)cc1` (stereo in doubt) [Example 492, trans-4-(5-(4-aminocyclohexylamino)-[1,2,4]triazolo[1,5-a]pyridin-2-ylamino)benzamide]: the IC50 fell in the range of 0.005 to 250 nM.
The same measure, in the same setting: as for `c1ccc(Nc2nc3cccc(NC4CCCNC4)n3n2)cc1` (stereo in doubt) [Example 497, (R)-N^2-phenyl-N^5-(piperidin-3-yl)-[1,2,4]triazolo[1,5-a]pyridin-2,5-diamine], the figure is 1000 to 10000 nM.
Consider `N[C@H]1CC[C@H](Nc2cccc3nc(Nc4ccccc4)nn23)CC1` (stereo in doubt) [Example 518, trans-N^5-(4-aminocyclohexyl)-N^2-phenyl-[1,2,4]triazolo[1,5-a]pyridine-2,5-diamine], for which the IC50 was in the range of 500 to 1000 nM.
Same read-out and setting: the same measure for `Cc1n[nH]c2cc(Nc3nc4cccc(CC(C)CO)n4n3)ccc12` (stereo in doubt) [Example 555, (S)-2-methyl-3-(2-(3-methyl-1H-indazol-6-ylamino)-[1,2,4]triazolo[1,5-a]pyridin-5-yl)propan-1-ol]: 0.005 to 250 nM.

The same assay, now with this note: read-out: Activity Level (Syk HTRF assay IC50).
On to `CN(c1cccc2nc(Nc3ccc4c(c3)NC(=O)C4(C)C)nn12)C1CCOC1` (stereo in doubt) [compound 121, (S)-3,3-dimethyl-6-(5-(methyl(tetrahydrofuran-3-yl)amino)-[1,2,4]triazolo[1,5-a]pyridin-2-ylamino)indolin-2-one], for which the IC50 was 0.005 to 250 nM.
On to `CN1C(=O)C(C)(C)c2ccc(Nc3nc4cccc(NC5CCOC5)n4n3)cc21` (stereo in doubt) [compound 123, (R)-1,3,3-trimethyl-6-(5-(tetrahydrofuran-3-ylamino)-[1,2,4]triazolo[1,5-a]pyridin-2-ylamino)indolin-2-one], for which the IC50 was in the range of 0.005 to 250 nM.
Turning to `Nc1cccc(-c2cccc3nc(Nc4ccccc4)nn23)c1` [Example 87], the IC50 lay in the range of 0.005 to 250 nM.
For `NC(=O)c1ccc(Nc2nc3cccc(-c4ccccc4)n3n2)cc1` [Example 88], the IC50 lay in the range of 0.005 to 250 nM.
With `Oc1cccc(-c2cccc3nc(Nc4ccccc4)nn23)c1` [Example 92], the IC50 fell in the range of 0.005 to 250 nM.
On to `CN(C)c1ccc(Nc2nc3cccc(-c4ccccc4)n3n2)cc1` [Example 94], for which the IC50 was in the range of 0.005 to 250 nM.
Consider `c1ccc(Nc2nc3cccc(-c4ccccc4)n3n2)cc1` [Example 98], for which the IC50 was 500 to 1000 nM.
With `Cn1nc(NC2CCOCC2)c2ccc(Nc3nc4cccc(CC5CCOCC5)n4n3)cc21` [Example 99], the IC50 fell in the range of 1000 to 10000 nM.
Consider `CN1Cc2cc(Nc3nc4cccc(N[C@H]5CC[C@@H](O)CC5)n4n3)ccc2C1=O` [Example 135, cis-5-(5-(4-hydroxycyclohexylamino)-[1,2,4]triazolo[1,5-a]pyridin-2-ylamino)-2-methylisoindolin-1-one], for which the IC50 lay within 0.005 to 250 nM.
As to `CN1C(=O)C(C)(C)c2ccc(Nc3nc4cccc(CN5CCNC(=O)C5)n4n3)cc21` [Example 136, 1,3,3-trimethyl-6-(5-((3-oxopiperazin-1-yl)methyl)-[1,2,4]triazolo[1,5-a]pyridin-2-ylamino)inolin-2-one], the IC50 fell in the range of 0.005 to 250 nM.
On the same count and under the same terms, as for `CC1(C)C(=O)Nc2cc(Nc3nc4cccc(CC5CCNCC5)n4n3)ccc21` [Example 138, 3,3-dimethyl-6-(5-(piperidin-4-ylmethyl)-[1,2,4]triazolo[1,5-a]pyridin-2-ylamino)indolin-2-one], the figure is 0.005 to 250 nM; as for `Cn1ncc2cc(Nc3nc4cccc(N[C@H]5CC[C@@H](O)CC5)n4n3)cnc21` [Example 139, cis-4-(2-(1-methyl-1H-pyrazolo[3,4-b]pyridin-5-ylamino)-[1,2,4]triazolo[1,5-a]pyridin-5-ylamino)cyclohexanol], 0.005 to 250 nM; as for `CC1(C)C(=O)Nc2cc(Nc3nc4cccc(C[C@H]5CC[C@](C)(O)CC5)n4n3)ccc21` [Example 140, cis-6-(5-((4-hydroxy-4-methylcyclohexyl)methyl)-[1,2,4]triazolo[1,5-a]pyridin-2-ylamino)-3,3-dimethylindolin-2-one], 0.005 to 250 nM.
`COCc1nc2ccc(Nc3nc4cccc(NC5CCOCC5)n4n3)cc2[nH]1` [Example 142, N^2-(2-(methoxymethyl)-1H-benzo[d]imidazol-6-yl)-N^5-(tetrahydro-2H-pyran-4-yl)-[1,2,4]triazolo[1,5-a]pyridine-2,5-diamine]: the IC50 is 250 to 500 nM.
Same read-out and setting: the same measure for `CN1C(=O)C(C)(C)c2ccc(Nc3nc4cccc(CC5CCOCC5)n4n3)cc21` [Example 143, 1,3,3-trimethyl-6-(5-((tetrahydro-2H-pyran-4-yl)methyl)-[1,2,4]triazolo[1,5-a]pyridin-2-ylamino)indolin-2-one]: 0.005 to 250 nM; for `CN1Cc2cc(Nc3nc4cccc(NC5CCOCC5)n4n3)ccc2C1=O` [Example 144, 2-methyl-5-(5-(tetrahydro-2H-pyran-4-ylamino)-[1,2,4]triazolo[1,5-a]pyridin-2-ylamino)isoinoldin-1-one]: 1000 to 10000 nM; for `CN1Cc2cc(Nc3nc4cccc(CC5CCOCC5)n4n3)ccc2C1=O` [Example 145, 2-methyl-5-(5-((tetrahydro-2H-pyran-4-yl)methyl)-[1,2,4]triazolo[1,5-a]pyridin-2-ylamino)isoinoldin-1-one]: 500 to 1000 nM.
On to `Cc1cc(Nc2nc3cccc(CC4CCOCC4)n3n2)cc2c1cnn2C` [Example 147, N-(1,4-dimethyl-1H-indazol-6-yl)-5-((tetrahydro-2H-pyran-4-yl)methyl)-[1,2,4]triazolo[1,5-a]pyridin-2-amine], for which the IC50 fell in the range of 0.005 to 250 nM.
As for `Cc1cc(Nc2nc3cccc(NC4CCOCC4)n3n2)cc2c1cnn2C` [Example 148, N^2-(1,4-dimethyl-1H-indazol-6-yl)-N^5-(tetrahydro-2H-pyran-4-yl)-[1,2,4]triazolo[1,5-a]pyridin-2,5-diamine], the IC50 was 0.005 to 250 nM.
As for `Cc1nn(C)c2cc(Nc3nc4cccc(N[C@H]5CC[C@@H](O)CC5)n4n3)cc(F)c12` [Example 149, cis-4-(2-(4-fluoro-1,3-dimethyl-1H-indazol-6-ylamino)-[1,2,4]triazolo[1,5-a]pyridin-5-ylamino)cyclohexanol], the IC50 was 0.005 to 250 nM.
Consider `CC1(C)C(=O)Nc2cc(Nc3nc4cccc(N[C@@H]5CCOC5)n4n3)ccc21` [Example 150, (R)-3,3-dimethyl-6-(5-(tetrahydrofuran-4-ylamino)-[1,2,4]triazolo[1,5-a]pyridin-2-ylamino)indolin-2-one], for which the IC50 was in the range of 0.005 to 250 nM.
`CN1C(=O)C(C)(C)c2ccc(Nc3nc4cccc(NC5CCOCC5)n4n3)cc21` [Example 151, 1,3,3-trimethyl-6-(5-(tetrahydro-2H-pyran-4-ylamino)-[1,2,4]triazolo[1,5-a]pyridin-2-ylamino)indolin-2-one]: the IC50 fell in the range of 0.005 to 250 nM.
Still for that read-out and setting: the same measure for `CN1C(=O)C(C)(C)c2ccc(Nc3nc4cccc(N[C@H]5CC[C@@H](O)CC5)n4n3)cc21` [Example 152, cis-6-(5-(4-hydroxycyclohexylamino)-[1,2,4]triazolo[1,5-a]pyridin-2-ylamino)-1,3-3-trimethylindolin-2-one]: 0.005 to 250 nM; for `CN(CCO)c1cccc2nc(Nc3ccc4c(c3)NC(=O)C4(C)C)nn12` [Example 153, 6-(5-((2-hydroxyethyl)(methyl)amino)-[1,2,4]triazolo[1,5-a]pyridin-2-ylamino)-3,3-dimethylindolin-2-one]: 0.005 to 250 nM; for `O=C1CN(Cc2cccc3nc(Nc4ccc5c(C(F)(F)F)n[nH]c5c4)nn23)CCN1` [Example 155, 4-((2-(3-(trifluoromethyl)-1H-indazol-6-ylamino)-[1,2,4]triazolo[1,5-a]pyridin-5-yl)methyl)piperazin-2-one]: 0.005 to 250 nM.

The values above are taken from patent US8299056B2 (Signal Pharmaceuticals, LLC, priority 2008, dated 2012).
